Values of other authors, collected in patent publication US20030195186A1, “Methods of treating medication-, substance-, disease-, and other medical condition-related sexual dysfunction” (priority 2002, published 2003).

Conditions: intrathecal; spinal-cord injured male patients; case reports

Structure (SMILES): CN(C)C(=O)Oc1cccc([N+](C)(C)C)c1 [neostigmine]
- assisting patients with anejaculation to obtain ejaculation: being able to obtain ejaculation
